Each structure is given as a SMILES string. Where “and” joins values, the source holds several entries; their conditions need not be identical. Identical values can stand only once.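 Protocol summary: plate cells (96-well), add compound at 5 concentrations, incubate 48 h, interpolate endpoints linearly. Abbreviation: GI50, concentration required for 50% inhibition of growth. Definition used: TGI = concentration required for complete inhibition of growth.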

Some test systems named below: DU-145 prostate; BT-549 breast; MDA-MB-435; MDA-MB-231 breast.
Holding throughout (assay): NCI anticancer screen, dose series, 48 h

Take `O=C(O)C1CC=CCC1C(=O)Nc1cccc(O)c1` (configuration not stated): the TGI in the test on DU-145 prostate, in the test with BT-549 breast, with MDA-MB-435 and with MDA-MB-231 breast was above 100 µM throughout.
`Cc1c(Cl)c(=O)oc2cc(OC/C=C3\CCC(=O)O3)ccc12`: the GI50 was 14 µM in the test with DU-145 prostate, 15.7 µM with BT-549 breast, 25.3 µM in the test on MDA-MB-435 and 16.8 µM in the test with MDA-MB-231 breast. For the same compound, the TGI in the test with DU-145 prostate came to 29.4 µM; with BT-549 breast it was 32 µM; with MDA-MB-435 it was 96.3 µM; in the test on MDA-MB-231 breast, 33.2 µM.
`O=C1Nc2cc(-c3cccc(O)c3)ccc2/C1=C/c1ccc[nH]1`: the GI50 with DU-145 prostate is 3.16 µM; in the test on BT-549 breast it was 0.506 µM; in the test with MDA-MB-435, 0.391 µM; in the test on MDA-MB-231 breast, 0.163 µM. Moreover, the TGI is 23.6 µM with DU-145 prostate, 3.96 µM with BT-549 breast, 1.66 µM in the test with MDA-MB-435 and 7.39 µM in the test on MDA-MB-231 breast.
`CCC1C(C)C=NN1c1nc(N)nc(C(C#N)=Nc2ccc(N(C)C)cc2)n1` (configuration not stated): the results for the GI50 in the test on DU-145 prostate, in the test with MDA-MB-435 and with MDA-MB-231 breast were 9.32 µM, 16.7 µM and 11.4 µM, respectively. Besides, the TGI was 17.4 µM with DU-145 prostate, above 50 µM in the test with MDA-MB-435 and 30.9 µM in the test with MDA-MB-231 breast.
`O=[N+]([O-])c1cccc(-c2nc(-c3ccc(Cl)cc3Cl)cn2-c2ccccc2)c1`: the GI50 in the test on DU-145 prostate was 0.574 µM; with BT-549 breast, 0.0695 µM; in the test with MDA-MB-435, 0.763 µM; in the test on MDA-MB-231 breast, 1.93 µM. Also, the TGI with DU-145 prostate was 1.19 µM; in the test with BT-549 breast, above 22.1 µM; with MDA-MB-435, 2.71 µM; with MDA-MB-231 breast it was above 20.5 µM.
For the compound `CN1CCN(c2ccc(OC(F)(F)F)c(Nc3ncc4c(n3)-c3c(c(C(N)=O)nn3CCO)CC4)c2)CC1`, the GI50 in the test on DU-145 prostate was 0.0349 µM and 0.0417 µM; in the test with BT-549 breast it was 0.0875 µM and 0.176 µM; with MDA-MB-435, 0.0165 µM and 0.0188 µM; with MDA-MB-231 breast it was 0.0755 µM and 0.059 µM. Also, the TGI with DU-145 prostate was above 100 µM; in the test with BT-549 breast, 18 µM and > 10 µM; with MDA-MB-435, 0.0542 µM and 0.0634 µM; in the test with MDA-MB-231 breast, 8.61 µM and 3.23 µM.
In the case of `O=C1CC[C@H](N2Cc3c(OCc4ccc(CN5CCOCC5)cc4)cccc3C2=O)C(=O)N1`, the GI50 is above 100 µM with DU-145 prostate, 98.9 µM in the test on BT-549 breast, above 100 µM with MDA-MB-435 and above 100 µM in the test on MDA-MB-231 breast. In addition, the TGI in the test with DU-145 prostate, in the test with BT-549 breast, with MDA-MB-435 and with MDA-MB-231 breast was above 100 µM each time.
As for `CCN(CC)c1c(-c2ccccc2)n[nH]c1C(=O)OC`, the GI50 with DU-145 prostate is 36.9 µM; with BT-549 breast, 16.4 µM; in the test on MDA-MB-435, 20.1 µM; in the test with MDA-MB-231 breast, 35.8 µM. Further, the TGI in the test with DU-145 prostate is above 100 µM; with BT-549 breast it was 51.1 µM; in the test on MDA-MB-435, 55.6 µM; in the test on MDA-MB-231 breast, 60.4 µM.
For `Cc1ccc(C(=O)NCCCOc2ccc(N3C(N)=NC(N)=NC3(C)C)cc2Cl)cc1S(=O)(=O)F`, the GI50 was above 100 µM with DU-145 prostate, 43.1 µM in the test with BT-549 breast, 56.7 µM in the test on MDA-MB-435 and above 100 µM in the test with MDA-MB-231 breast. Besides, the TGI in the test with DU-145 prostate, with BT-549 breast, with MDA-MB-435 and with MDA-MB-231 breast was above 100 µM in each case.
As for `O=C1/C=C/[C@@H](O)[C@@H]2C[C@@H](O)C[C@H]2/C=C/CCC[C@H](CCc2ccc3ncccc3c2)O1`, the GI50 in the test with DU-145 prostate is 0.564 µM; in the test with BT-549 breast, 0.402 µM; in the test with MDA-MB-435 it was 0.318 µM; with MDA-MB-231 breast, 0.167 µM. Besides, the TGI with DU-145 prostate is above 100 µM; in the test on BT-549 breast, 16.2 µM; with MDA-MB-435, 13.3 µM; in the test with MDA-MB-231 breast it was 0.373 µM.
Take `Cc1cc(-c2nnc(/C=C/c3ccc4c(c3)OCO4)o2)n[nH]1`: the GI50 in the test on DU-145 prostate is 9.17 µM; in the test on BT-549 breast, 6.78 µM; in the test with MDA-MB-435, 0.915 µM; in the test on MDA-MB-231 breast, 16.9 µM. In addition, the TGI in the test on DU-145 prostate is 29.4 µM; with BT-549 breast it was 39.3 µM; in the test with MDA-MB-435, 2.52 µM; with MDA-MB-231 breast, above 50 µM.
With `[N-]=[N+]=NCCCn1c2c(c3ccc([N+](=O)[O-])cc3c1=O)C(=O)c1cc3c(cc1-2)OCO3`, the GI50 in the test on DU-145 prostate is 0.0342 µM; in the test on BT-549 breast, below 0.01 µM; in the test with MDA-MB-435, below 0.042 µM; in the test on MDA-MB-231 breast it was 0.828 µM. The TGI in the test on DU-145 prostate was 0.271 µM; with BT-549 breast it was below 0.01 µM; in the test with MDA-MB-435, 1.49 µM; in the test on MDA-MB-231 breast it was 12.3 µM.
As for `Cc1cc(C(=O)/C=C/c2ccc[nH]2)ccc1-n1ccc(C(F)(F)F)n1`, the GI50 with DU-145 prostate was 24.8 µM; with BT-549 breast it was 1.36 µM; in the test on MDA-MB-435, 35.5 µM; with MDA-MB-231 breast it was 27.6 µM. Moreover, the TGI with DU-145 prostate is above 100 µM; with BT-549 breast it was 3.12 µM; with MDA-MB-435 it was above 100 µM; in the test on MDA-MB-231 breast, above 100 µM.
As for `NCCCCCNc1noc(Cc2c[nH]c3cc(Br)ccc23)n1`, the GI50 was 3.11 µM in the test with DU-145 prostate, 2.43 µM in the test on BT-549 breast, 0.327 µM in the test with MDA-MB-435 and 2.78 µM with MDA-MB-231 breast. The TGI with DU-145 prostate came out at 9.01 µM; in the test with BT-549 breast, 24.4 µM; with MDA-MB-435 it was 2.33 µM; in the test with MDA-MB-231 breast, 15.7 µM.
As to `C[C@]12CC[C@@H]3c4ccc(O)cc4CC[C@H]3[C@@H]1CC[C@@H]2NS(=O)(=O)c1ccc(Br)cc1`, the GI50 in the test with DU-145 prostate was 3.91 µM; in the test with BT-549 breast, 2.27 µM; with MDA-MB-435, 1.84 µM; with MDA-MB-231 breast, 2.01 µM. Besides, the TGI came out at 12.7 µM with DU-145 prostate, 4.72 µM with BT-549 breast, 3.97 µM with MDA-MB-435 and 4.62 µM with MDA-MB-231 breast.
Take `CO[C@@H]1CCN(c2nccc(Nc3cc4c(C(C)C)ccc(N5CC(CS(C)(=O)=O)[C@H]5C)c4cn3)n2)C[C@@H]1F` (some centres not stated): the GI50 was 2.45 µM with DU-145 prostate, 4.55 µM in the test on BT-549 breast, 4.96 µM in the test with MDA-MB-435 and 8.77 µM in the test with MDA-MB-231 breast. Also, the TGI is 45.1 µM in the test with DU-145 prostate, 35.4 µM in the test with BT-549 breast, 83.9 µM with MDA-MB-435 and above 100 µM in the test on MDA-MB-231 breast.
With `CC(=O)Oc1ccc2c(c1)[C@@]1(C)CCCC(C)(C)[C@@H]1CC2`, the values for the GI50 with BT-549 breast, in the test with MDA-MB-435 and in the test with MDA-MB-231 breast were 36.5 µM, 16.8 µM and 17.8 µM, respectively. The results for the TGI in the test on BT-549 breast, in the test with MDA-MB-435 and with MDA-MB-231 breast were above 100 µM, 40 µM and 34.2 µM, respectively.
On to `NC(=S)N=Nc1c(O)[nH]c2c(Cl)cc(Cl)cc12`, for which the TGI was found to be 50.4 µM in the test with BT-549 breast, 34 µM in the test on MDA-MB-435 and 50.2 µM in the test on MDA-MB-231 breast.
On to `Nc1c(C(=O)Nc2ccccn2)sc2nc3c(cc12)C(O)CCC3` (configuration not stated), for which the GI50 is 1.94 µM in the test with DU-145 prostate, 3.47 µM with BT-549 breast and 18.3 µM in the test on MDA-MB-231 breast. The TGI with DU-145 prostate, with BT-549 breast and with MDA-MB-231 breast was above 50 µM in each case.
Turning to `CS(=O)(=O)Nc1cc(-c2ccc3ncnc(Nc4ccc(F)c(Cl)c4)c3c2)cnc1Cl`, the GI50 in the test with DU-145 prostate is 0.738 µM and 0.766 µM; in the test with BT-549 breast, 0.307 µM and 0.287 µM; with MDA-MB-435 it was 0.605 µM and 0.537 µM; in the test on MDA-MB-231 breast, 0.98 µM and 1.07 µM. In addition, the TGI in the test on DU-145 prostate was 11.1 µM and 13.6 µM; with BT-549 breast, 3.36 µM and 2.68 µM; in the test on MDA-MB-435, 7.03 µM and 4.96 µM; in the test on MDA-MB-231 breast, 3.21 µM and 5.92 µM.
Take `COc1cc(Cl)cc(-c2nn(-c3cccc(NC(=O)Nc4cccc(C(F)(F)F)c4)c3)cc2-c2ccncc2)c1`: the GI50 was 2.61 µM in the test on DU-145 prostate, 2.22 µM with BT-549 breast, 1.74 µM with MDA-MB-435 and 1.59 µM in the test on MDA-MB-231 breast. The TGI in the test with DU-145 prostate is above 100 µM; with BT-549 breast, 5.6 µM; in the test with MDA-MB-435, 3.82 µM; in the test with MDA-MB-231 breast it was 4.91 µM.
For `COc1cccc(/C=C/c2nc3c(cnn3-c3ccccc3)c(=O)[nH]2)c1`, the GI50 is above 100 µM in the test with DU-145 prostate, above 72.9 µM in the test with BT-549 breast, 0.447 µM in the test with MDA-MB-435 and 50 µM in the test on MDA-MB-231 breast. Besides, the TGI was above 100 µM in the test on DU-145 prostate, above 100 µM with BT-549 breast, above 72.4 µM with MDA-MB-435 and above 100 µM in the test with MDA-MB-231 breast.
Regarding `OB(O)c1ccccc1C#Cc1ccccc1B(O)O`, the TGI in the test on DU-145 prostate came out at 82.4 µM; with BT-549 breast, 47.8 µM; in the test on MDA-MB-435 it was 49 µM; in the test on MDA-MB-231 breast, 66.3 µM.
`CNC(=O)c1cc(Oc2cccc3nc(NC(=O)Nc4cc(C(F)(F)F)cc(C(F)(F)F)c4)ccc23)ccn1`: the GI50 is 6.29 µM in the test on DU-145 prostate, 11.4 µM with BT-549 breast and 4.7 µM with MDA-MB-435. Moreover, the TGI in the test on DU-145 prostate is 65.9 µM; in the test on BT-549 breast, 55.6 µM; with MDA-MB-435, above 100 µM.
As to `CC(C)(C)c1cc(C(=O)Nc2ccc(C(=O)NCCN)cc2)cc(C(C)(C)C)c1`, the GI50 with DU-145 prostate was 3.46 µM; with BT-549 breast, 13.1 µM; in the test on MDA-MB-435 it was 1.52 µM. The results for the TGI with DU-145 prostate, with BT-549 breast and in the test on MDA-MB-435 were 12.4 µM, 33.6 µM and 3.09 µM, respectively.

Values taken from PubChem BioAssay (NCI).
